Laboratory results from ChEMBL document CHEMBL3822404, “Design, synthesis and biological evaluation of novel 3-alkylsulfanyl-4-amino-1,2,4-triazole derivatives” (Bioorg Med Chem Lett, 2016).

What was measured:
HeLa [1] = assay: Antiproliferative activity against human HeLa cells measured after 48 hrs by MTT assay; type: functional, cell-based
HEK293 = assay: Cytotoxicity against HEK293 cells measured after 48 hrs by MTT assay; type: cell-based; settings: Homo sapiens, HEK293, 48 h
[2] = Antiproliferative activity against human HCT116 cells measured after 48 hrs by MTT assay; type: functional, cell-based; settings: HCT-116, 48 h
HepG2 = assay: Antiproliferative activity against human HepG2 cells measured after 48 hrs by MTT assay; type: functional, cell-based; settings: HepG2, 48 h
[3] = Antiproliferative activity against human PC3 cells measured after 48 hrs by MTT assay; type: functional, cell-based; settings: PC-3, 48 h
HeLa [4] = assay: Induction of cell cycle arrest in human HeLa cells assessed as accumulation at G0/G1 phase at 8 uM measured after 12 to 18 hrs by […] cell sorting analysis (reference value: 64.31%); type: functional
HeLa [5] = assay: Induction of cell cycle arrest in human HeLa cells assessed as accumulation at G2/M phase at 2 uM measured after 12 to 18 hrs by […] cell sorting analysis (reference value: 16.67%); type: functional
HeLa [6] = assay: Induction of cell cycle arrest in human HeLa cells assessed as accumulation at S phase at 8 uM measured after 12 to 18 hrs by […] cell sorting analysis (reference value: 19.02%); type: functional
HeLa [7] = assay: Induction of cell cycle arrest in human HeLa cells assessed as accumulation at G2/M phase measured after 18 hrs by […] cell sorting analysis; type: functional, cell-based
HeLa [8] = assay: Induction of cell cycle arrest in human HeLa cells assessed as accumulation at G2/M phase at 4 uM measured after 12 to 18 hrs by […] cell sorting analysis (reference value: 16.67%); type: functional
HeLa [9] = assay: Induction of cell cycle arrest in human HeLa cells assessed as accumulation at S phase at 2 uM measured after 12 to 18 hrs by […] cell sorting analysis (reference value: 19.02%); type: functional
HeLa [10] = assay: Induction of cell cycle arrest in human HeLa cells assessed as accumulation at G0/G1 phase at 2 uM measured after 12 to 18 hrs by […] cell sorting analysis (reference value: 64.31%); type: functional
HeLa [11] = assay: Induction of cell cycle arrest in human HeLa cells assessed as accumulation at S phase at 4 uM measured after 12 to 18 hrs by […] cell sorting analysis (reference value: 19.02%); type: functional
HeLa [12] = assay: Induction of cell cycle arrest in human HeLa cells assessed as accumulation at G2/M phase at 8 uM measured after 12 to 18 hrs by […] cell sorting analysis (reference value: 16.67%); type: functional
HeLa [13] = assay: Induction of cell cycle arrest in human HeLa cells assessed as accumulation at G0/G1 phase at 4 uM measured after 12 to 18 hrs by […] cell sorting analysis (reference value: 64.31%); type: functional

| Compound | IC50 (HeLa [1]) [µM] | IC50 [2] [µM] | IC50 (HepG2) [µM] | IC50 [3] [µM] | further results |
| --- | --- | --- | --- | --- | --- |
| COc1ccc(C(=O)CSc2nnc(-c3cc(OC)c(OC)c(OC)c3)n2N)cc1 | 17.4 | 1.24 | > 100 | 97.9 | IC50 (HEK293): 100 µM |
| COc1cc(-c2nnc(SCC(=O)NCCc3ccc(C)cc3)n2N)cc(OC)c1OC | > 100 | > 100 | > 100 | 41.3 |  |
| COc1cc(-c2nnc(SCC(=O)c3ccccc3F)n2N)cc(OC)c1OC | 80.1 | 10.8 | 22.6 | 43.1 |  |
| COc1cc(-c2nnc(SCC(=O)NCCc3ccccc3)n2N)cc(OC)c1OC | > 100 | > 100 | > 100 | 80.5 |  |
| COc1cc(-c2nnc(SCC(=O)c3ccc(F)c(F)c3)n2N)cc(OC)c1OC | > 100 | 10.4 | > 100 | > 100 |  |
| COc1cc(-c2nnc(SCC(=O)c3ccc(F)cc3)n2N)cc(OC)c1OC | 20.9 | 3.23 | 90.4 | > 100 |  |
| COc1cc(-c2nnc(SCC(=O)c3ccccc3)n2N)cc(OC)c1OC | > 100 | 53 | 7.8 | > 100 |  |
| COc1cc(-c2nnc(SCC(=O)Nc3ccccc3C)n2N)cc(OC)c1OC | > 100 | > 100 | > 100 | > 100 |  |
| COc1cc(-c2nnc(SCC(=O)Nc3ccccc3)n2N)cc(OC)c1OC | 8.28 | 1.73 | 49.9 | 37.9 |  |
| COc1ccc(CNC(=O)CSc2nnc(-c3cc(OC)c(OC)c(OC)c3)n2N)cc1OC | > 100 | > 100 | > 100 | > 100 |  |
| COc1cccc(NC(=O)CSc2nnc(-c3cc(OC)c(OC)c(OC)c3)n2N)c1 | 4.02 | 0.68 | > 100 | > 100 | IC50 (HEK293): 100 µM |
| COc1cc(-c2nnc(SCC(=O)c3ccc(Br)cc3)n2N)cc(OC)c1OC | 10.4 | 9.23 | 92.5 | > 100 |  |
| O=c1[nH]cc(F)c(=O)[nH]1 [FLUOROURACIL] | 57.2 | 68.7 |  | 57 |  |
| COc1cc(-c2nnc(SCC(=O)c3ccc(C)cc3)n2N)cc(OC)c1OC | 2.94 | 0.37 | > 100 | 31.3 | Activity (HeLa [4]): 7.37%; Activity (HeLa [5]): 32.55%; Activity (HeLa [6]): 13.81%; Activity (HeLa [7]): Dose-dependent effect; Activity (HeLa [8]): 70.18%; Activity (HeLa [9]): 14.07%; Activity (HeLa [10]): 53.39%; IC50 (HEK293): 100 µM; Activity (HeLa [11]): 17.42%; Activity (HeLa [12]): 78.81%; Activity (HeLa [13]): 12.41% |
| COc1cc(-c2nnc(SCC(=O)NCc3ccc(Cl)cc3)n2N)cc(OC)c1OC | > 100 | > 100 | > 100 | > 100 |  |
| COc1cc(-c2nnc(SCC(=O)Nc3ccccc3F)n2N)cc(OC)c1OC | 38.2 | 1.16 | 18.7 | 36.7 | IC50 (HEK293): > 100 µM |
| COc1ccc(CCNC(=O)CSc2nnc(-c3cc(OC)c(OC)c(OC)c3)n2N)cc1 | > 100 | > 100 | > 100 | 73.6 |  |
| COc1cc(-c2nnc(SCC(=O)NCCc3ccc(Cl)cc3)n2N)cc(OC)c1OC | 79.9 | 39.6 | > 100 | > 100 |  |
| COc1cc(-c2nnc(SCC(=O)NCc3ccc(C)cc3)n2N)cc(OC)c1OC | > 100 | > 100 | > 100 | 92.8 |  |
| COc1cc(-c2nnc(SCC(=O)c3ccc(Cl)cc3)n2N)cc(OC)c1OC | 13.1 | 7.5 | > 100 | > 100 |  |
| COc1cc(-c2nnc(SCC(=O)c3cccc(Br)c3)n2N)cc(OC)c1OC | 77.5 | 5.32 | 56 | > 100 |  |
| COc1cc(-c2nnc(SCC(=O)Nc3ccc(C)cc3)n2N)cc(OC)c1OC | 4.77 | 3.45 | > 100 | 43.1 | IC50 (HEK293): 79.4 µM |
| COc1cc(-c2nnc(SCC(=O)c3ccc(C(F)(F)F)cc3)n2N)cc(OC)c1OC | 3.38 | 16.7 | > 100 | > 100 |  |
| COc1cc(NC(=O)CSc2nnc(-c3cc(OC)c(OC)c(OC)c3)n2N)cc(OC)c1OC | > 100 | > 100 | > 100 | > 100 |  |
| COc1cc(-c2nnc(SCC(=O)NCCc3ccc(F)cc3)n2N)cc(OC)c1OC | 66.5 | > 100 | > 100 | 56.1 |  |
